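1) Cells in 96-well plates. 2) Compound, 48 h, 5 concentrations. 3) Linear interpolation between surrounding doses. 4) Unreached endpoint = highest concentration. Here, GI50 denotes the concentration required for 50% inhibition of growth. TGI denotes the concentration required for complete inhibition of growth.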
Experiments:
Assay in all cases: NCI tumour cell line growth inhibition, 48 h
SK-OV-3 ovarian = system: SK-OV-3 ovarian
SR leukemia = system: SR leukemia
HCT-116 colon = system: HCT-116 colon
UO-31 renal = system: UO-31 renal
KM12 colon = system: KM12 colon
BT-549 breast = system: BT-549 breast
A549 NSCLC = system: A549 NSCLC
PC-3 prostate = system: PC-3 prostate
MALME-3M melanoma = system: MALME-3M melanoma
NCI-H460 lung = system: NCI-H460 lung

SMILES | GI50 (SK-OV-3 ovarian) [µM] | TGI (SK-OV-3 ovarian) [µM] | GI50 (SR leukemia) [µM] | TGI (SR leukemia) [µM] | GI50 (HCT-116 colon) [µM] | TGI (HCT-116 colon) [µM] | GI50 (UO-31 renal) [µM] | TGI (UO-31 renal) [µM] | GI50 (KM12 colon) [µM] | TGI (KM12 colon) [µM] | GI50 (BT-549 breast) [µM] | TGI (BT-549 breast) [µM] | GI50 (A549 NSCLC) [µM] | TGI (A549 NSCLC) [µM] | GI50 (PC-3 prostate) [µM] | TGI (PC-3 prostate) [µM] | GI50 (MALME-3M melanoma) [µM] | TGI (MALME-3M melanoma) [µM] | GI50 (NCI-H460 lung) [µM] | TGI (NCI-H460 lung) [µM]
C=C1C(=O)O[C@H]2[C@H]1CC/C(COC(=O)c1cn(C)c3ccccc13)=C\CC[C@@]1(C)O[C@@H]21 | 4.33 | 15 | 0.342 | 1.17 | 1.02 | 2.24 | 0.775 | 2.1 | 1.83 | 4.79 | 0.514 | 1.99 | 1.82 | 4.23 | 1.47 | 4.29 | 1.62 | 3.34 | 1.73 | 3.92
COC1(OC)C2(Cl)C(Cl)=C(Cl)C1(Cl)C1c3ccc(C(C)=O)c4cccc(c34)C12 (stereo not given) |  | > 100 |  | 50.2 |  | > 100 |  | > 100 |  | > 100 |  | > 100 |  | > 100 |  | > 100 |  | 58 |  | > 80.5
Cc1cc(C(=O)Nc2cc(Oc3ccc4nc(NC(=O)C5CC5)cn4n3)ccc2C)n(C)n1 | > 10 | > 10 | 2.26 | > 10 | 5.66 | > 10 | > 10 | > 10 | > 10 | > 10 | 6.42 | > 10 | > 10 | > 10 | > 10 | > 10 | > 10 | > 10 | > 10 | > 10
O=C1NC(=O)[C@@]2(CC[C@@H](O)C2)c2ccncc21 |  | > 100 |  | > 100 |  | > 100 |  | > 100 |  | > 100 |  | > 100 |  | > 100 |  | > 100 |  | > 100 |  | > 100
COc1cccc(-n2ncc3c(N/N=C/c4ccc(C)cc4)ncnc32)c1 | > 25 | > 25 | > 14.4 | > 25 | > 25 | > 25 | > 25 | > 25 | > 25 | > 25 | > 25 | > 25 | > 25 | > 25 | > 25 | > 25 | 24.1 | > 25 | > 25 | > 25
COC12C=C/C(=C(/C(=O)OCCSc3ccnn3C)C(=O)CCCCCCCCC3(OC)C=C/C(=C(/C(=O)OCCSc4ccnn4C)C(=O)CCCCCCCC1)O3)O2 | 1.66 | 24.9 | 0.886 | > 32.5 | 0.66 | 1.37 | 0.942 | 11.1 | 0.813 | 2.1 | 0.954 | 2.83 | 0.882 | 2.66 | 1.51 | > 32.5 | 0.776 | 2.32 | 1.07 | 3.76
O=C(O)/C=C/c1ccc[c]([Sb](=[O])([OH])[OH])c1 |  |  | > 100 | > 100 | > 100 | > 100 | > 100 | > 100 | > 100 | > 100 | > 100 | > 100 | > 100 | > 100 | > 100 | > 100 | > 100 | > 100 | > 100 | > 100
COc1cc(-c2nn(-c3cccc(NC(=O)NCCNS(=O)(=O)c4ccc(Cl)cc4)c3)cc2-c2ccncc2)ccc1Cl | 1.85 | 17.5 | 0.466 | 3.53 | 0.381 | 2.47 | 2.45 | > 100 | 0.456 | 2.41 | 1.23 | 5.14 | 1.93 | 37.4 | 0.49 | 9.55 | 0.588 | 2.87 | 0.413 | 3.69
Cc1cn(CCC(N)C(=O)O)c(=O)[nH]c1=O (stereo not given) |  | > 100 |  | > 100 |  | > 100 |  | > 100 |  | > 100 |  | > 100 |  | > 100 |  | > 100 |  | > 100 |  | > 100
O=C1/C(=C/c2ccc(F)c(F)c2)CN(C(=O)C(Cl)Cl)C/C1=C\c1ccc(F)c(F)c1 | 0.492 | 1.78 | 0.0128 | > 100 | 0.0326 | 0.12 | 0.0982 | 0.238 | 0.0497 | 0.2 | 0.0837 | 0.34 | 0.262 | 1.09 | 0.0477 | 0.273 | 0.199 | 0.539 | 0.134 | 0.444
CCN1C(=O)N(CC)C2C1NN=c1s/c(=C\c3cccs3)c(=O)n12 (stereo not given) | 0.649 | > 100 | 0.0576 | > 100 | 0.0903 | > 100 | 0.594 | > 100 | 0.0545 | > 82.6 | 0.443 | > 100 | 0.244 | > 100 | 0.12 | > 100 |  |  | 0.119 | 
C[C@]12CC[C@@H]3c4ccc(O)cc4CC[C@H]3[C@@H]1CC[C@@H]2NS(=O)(=O)c1cccc(Cl)c1 | 3.79 | 12.6 | 2.15 | 6.6 | 1.68 | 3.11 | 2.01 | 8.75 | 1.96 | 4.24 | 2.15 | 5.25 | 3.22 | 12.7 | 2.98 | 11.9 | 2.36 | 6.75 | 2.24 | 5.02
CCOc1cc(C(=O)O)c2c(ccc3ccc(OC)c(OC)c32)c1OC |  | > 100 |  | > 100 |  | > 100 |  | > 100 |  | > 100 |  | > 100 |  | > 100 |  | > 100 |  | > 100 |  | > 100
CC(=Nc1ccccc1)C1=C(O)C(Cc2cccc(F)c2)NC1=O (stereo not given) | 0.0469 | 1.33 | 0.0239 | > 72.8 | 0.047 | > 39.4 | 0.0789 | > 100 | 0.0457 | > 100 | 0.173 | > 100 | 0.0511 | > 100 | 0.0399 | > 100 | 0.0419 | > 100 | 0.0403 | > 100
